Results on 1 molecule are retold here after EPA's ToxValDB 9.5 (doi:10.2903/j.efsa.2016.4515).

One data set concerns Anas platyrhynchos. Particulars: chronic/long-term.
A further data set relates to Apis mellifera. The conditions noted are these: acute, mortality.
The test system of a further data set is Bibionidae. Particulars: chronic/long-term, other.
The subject of a further data set is Colinus virginianus. The conditions noted are these: acute, oral, mortality.
Another data set has as its system Folsomia candida. Particulars: chronic/long-term; mortality.
In the next data set the test system is Neomysis kadiakensis. The conditions noted are these: chronic/long-term; duration: 28 days; reproduction.
The test system of the next data set is Aphidius rhopalosiphi. Put plainly: LR50; higher = less toxic. Particulars: not reported; other.

The structures appear in SMILES notation. In brackets after ≈: the same amount, converted by molar mass.

Usually NOAEL stands for the highest dose or exposure tested at which no adverse effect was seen. In the data set on Anas platyrhynchos, `CO/C=C(/C(=O)OC)c1ccccc1COc1cccc(C(F)(F)F)n1` [Picoxystrobin] yielded an NOEL of 110 mg/kg-day. The LD50 in the data set on Apis mellifera (dermal) was over 200 µg/piece; in the data set on Apis mellifera (oral, unspecified), over 200 µg/piece; in the data set with Colinus virginianus (diet), over 1770 mg/kg-day; in the data set with Colinus virginianus, over 2250 mg/kg; in the data set with Rattus norvegicus (acute, mortality), over 5000 mg/kg. In addition, the NOEC with Bibionidae (duration: 21 days) amounted to 0.0084 mg/L; in the data set with Bibionidae (duration: 28 days) it was 5 mg/kg; with Folsomia candida, 12.5 mg/kg; in the data set with Neomysis kadiakensis, 0.0036 mg/L; in the data set on Oncorhynchus mykiss (chronic/long-term, duration: 28 days, growth), 0.01 mg/L; in the data set with Tagia sp. (chronic/long-term, reproduction), 0.315 mg/kg. Further, the LC50 in the data set on Oncorhynchus mykiss (acute, duration: 96 hours, mortality) was 0.05 µg/mL (≈ 0.136 µM); in the data set on Tagia sp. (acute, mortality) it was 3.35 mg/kg. In the data set with Rattus norvegicus (chronic), this molecule returned an NOAEL of 21.8 mg/kg-day. Besides, the LR50 in the data set with Aphidius rhopalosiphi was 0.675 g/ha.
